11 molecules from patent publication US8980906B2, “Pyridonemorphinan analogs and biological activity on opioid receptors” (Purdue Pharma L.P., priority 2012, dated 2015) can be followed below.

Like-named read-outs stand apart in the source and are kept apart here.

In assay [1] the target is T1, κ-opioid receptor (Homo sapiens (Human), UniProt P41145). Put plainly: κ-opioid receptor radioligand dose-displacement binding assay ([3H]-U69,593). Conditions: binding affinity, [3H]-U69,593 displacement. On the procedure:
κ-Opioid Receptor Binding Assay Procedures: Membranes from HEK-293 cells, CHO or U-2 OS cells expressing the recombinant human kappa opioid receptor (κ) were prepared by lysing cells in ice cold hypotonic buffer (2.5 mM MgCl2, 50 mM HEPES, pH 7.4) (10 mL/10 cm dish) followed by homogenization with a tissue grinder/Teflon pestle. Membranes were collected by centrifugation at 30,000×g for 15 min at 4° C. and pellets were resuspended in hypotonic buffer to a final concentration of 1-3 mg/mL. Protein concentrations were determined using the BioRad protein assay reagent with bovine serum albumen as standard, Aliquots of κ receptor membranes were stored at […].
Radioligand dose displacement assays used 0.4 nM [^3H]-U69,593 (GE Healthcare, Piscataway, N.J.; 40 Ci/mmole) with 15 μg membrane protein (recombinant κ opioid receptor expressed in HEK 293 cells; in-house prep) in a final volume of 200 μl binding buffer (5% DMSO, 50 mM Trizma base, pH 7.4). Non-specific binding was determined in the presence of 10 μM unlabeled naloxone or U69,593. All reactions were performed in 96-well polypropylene plates for 1 hour at a temperature of about 25° C. Binding reactions were terminated by rapid filtration onto 96-well Unifilter GF/C filter plates (Perkin Elmer, Shelton, Conn.) presoaked in 0.5% polyethylenimine (Sigma). Harvesting was performed using a 96-well tissue harvester (Perkin Elmer, Shelton, Conn.) followed by five filtration washes with 200 μl ice-cold binding buffer. Filter plates were subsequently dried at 50° C. for 1-2 hours. Fifty μl/well scintillation cocktail (Perkin Elmer, Shelton, Conn.) was added and plates were counted in a Packard Top-Count for 1 min/well.

In assay [2] the target is T1, κ-opioid receptor. Put plainly: κ-opioid receptor [35S]GTPγS functional assay, HEK-293 or CHO cells. The format is biochemical. As for the experimental part: κ-Opioid Receptor Functional Assay Procedures: Functional [^35S]GTPγS binding assays were conducted as follows. κ opioid receptor membrane solution was prepared by sequentially adding final concentrations of 0.026 μg/μl κ membrane protein (in-house), 10 μg/mL saponin, 3 μM GDP and 0.20 nM [^35S]GTPγS to binding buffer (100 mM NaCl, 10 mM MgCl2, 20 mM HEPES, pH 7.4) on ice. The prepared membrane solution (190 μl/well) was transferred to 96-shallow well polypropylene plates containing 10 μl of 20× concentrated stock solutions of agonist prepared in DMSO. Plates were incubated for 30 min at a temperature of about 25° C. with shaking. Reactions were terminated by rapid filtration onto 96-well Unifilter GF/B filter plates (Perkin Elmer, Shelton, Conn.) using a 96-well tissue harvester (Packard) and followed by three filtration washes with 200 μl ice-cold binding buffer (10 mM NaH2PO4, 10 mM Na2HPO4, pH 7.4). Filter plates were subsequently dried at 50° C. for 2-3 hours. Fifty μl/well scintillation cocktail (Perkin Elmer, Shelton, Conn.) was added and plates were counted in a Packard Top-Count for 1 min/well.
κ-Opioid Receptor Functional Data: κ GTP EC50 is the concentration of a compound providing 50% of the maximal response for the compound at a κ receptor.
κ GTP Emax (%) is the maximal effect elicited by a compound relative to the effect elicited by U69,593.
(§1) In TABLE 2, activity response of certain Compounds of the Invention to the μ-, δ- and κ-opioid receptors was determined as described above for functional assays using HEK-293 or CHO cells.
On the technique in general: Binding of GTPγS marks nucleotide exchange on a G protein.

The target in assay [3] is μ-opioid receptor (Homo sapiens (Human), UniProt P35372). Put plainly: μ-opioid receptor [35S]GTPγS functional assay, HEK-293 or CHO cells. The format is biochemical. On the procedure:
μ-Opioid Receptor Functional Assay Procedures: [^35S]GTPγS functional assays were conducted using freshly thawed μ-receptor membranes prepared in-house from a cell line expressing recombinant μ opioid receptor in a HEK-293, CHO or U-2 OS cell background, or purchased from a commercial source (Perkin Elmer, Shelton, Conn.; or DiscovRx, Fremont, Calif.). Assay reactions were prepared by sequentially adding the following reagents to binding buffer (100 mM NaCl, 10 mM MgCl2, 20 mM HEPES, pH 7.4) on ice (final concentrations indicated): membrane protein (0.026 mg/mL), saponin ([…]), GDP ([…]) and [^35S]GTPγS (0.20 nM; Perkin Elmer, Shelton, Conn.). The prepared membrane solution (190 μl/well) was transferred to 96-shallow well polypropylene plates containing 10 μl of 20× concentrated stock solutions of the agonist [D-Ala^2, N-methyl-Phe^4 Gly-ol^5]-enkephalin (DAMGO) prepared in dimethyl sulfoxide (DMSO). Plates were incubated for 30 min at about 25° C. with shaking. Reactions were terminated by rapid filtration onto 96-well Unifilter GF/B filter plates (Perkin Elmer, Shelton, Conn.) using a 96-well tissue harvester (Perkin Elmer, Shelton, Conn.) followed by three filtration washes with 200 μl of ice-cold wash buffer (10 mM NaH2PO4, 10 mM Na2HPO4, pH 7.4). Filter plates were subsequently dried at 50° C. for 2-3 hours. BetaScint scintillation cocktail (Perkin Elmer, Shelton, Conn.) was added (50 μl/well) and plates were counted using a Packard Top-Count for 1 min/well. Data were analyzed using the sigmoidal dose-response curve fitting functions in GraphPad PRISM v. 3.0, or an in-house function for non-linear, sigmoidal dose-response curve-fitting.
μ-Opioid Receptor Functional Data: μ GTP EC50 is the concentration of a compound providing 50% of the maximal response for the compound at a μ-opioid receptor.
μ GTP Emax (%) is the maximal effect elicited by a compound relative to the effect elicited by DAMGO, a standard μ agonist. Generally, the μ GTP Emax (%) value measures the efficacy of a compound to treat or prevent pain or other Conditions.
as §1

Where [4] appears, read: relative to U69,593, HEK-293 or CHO cells.
Setting [5] is: relative to DAMGO, HEK-293 or CHO cells.

Broadly, the Ki is the dissociation constant of the complex between target and ligand, obtained from inhibition or displacement. A lower Ki goes with higher affinity. Regarding `COc1ccc2c(c1)[C@]13CCN(CC4CC4)[C@H](C2)[C@]1(O)Cc1cc(C(=O)NCC(N)=O)c(=O)[nH]c1C3` [Compound 13, (6R,6aS,12aR)—N-(2-amino-2-oxoethyl)-15-(cyclopropylmethyl)-6a-hydroxy-2-methoxy-10-oxo-6,6a,7,10,11,12-hexahydro-5H-6,12a-(epiminoethano)naphtho[2,1-g]quinoline-9-carboxamide], the affinity in assay [1], expressed as Ki, was 467 ± 173 nM.

One may read the EC50 as the concentration at which the effect is half-maximal. Regarding `CC(C)C[C@H](NC(=O)c1cc2c([nH]c1=O)C[C@]13CCN(CC4CC4)[C@H](Cc4ccc(O)cc41)[C@]3(O)C2)C(N)=O` [Compound 18, (6R,6aS,12aR)—N—((S)-1-amino-4-methyl-1-oxopentan-2-yl)-15-(cyclopropylmethyl)-2,6a-dihydroxy-10-oxo-6,6a,7,10,11,12-hexahydro-5H-6,12a-(epiminoethano)naphtho[2,1-g]quinoline-9-carboxamide], the EC50 in assay [2] is over 20000 nM. This molecule also came in with a Ki in assay [1] of 1.09 ± 0.05 nM.

As for `COc1ccc2c(c1)[C@]13CCN(CC4CC4)[C@H](C2)[C@@H]1Cc1cc(C(=O)O)c(=O)[nH]c1C3` [Compound 10, (6R,6aR,12aS)-15-(cyclopropylmethyl)-2-methoxy-10-oxo-6,6a,7,10,11,12-hexahydro-5H-6,12a-(epiminoethano)naphtho[2,1-g]quinoline-9-carboxylic acid], the EC50 in assay [2] (GTPγS, HEK-293 or CHO cells, read-out: κ EC50) amounted to 3490 ± 636 nM; in assay [3] (GTPγS, HEK-293 or CHO cells, read-out: μ EC50), 225 ± 89.6 nM. Besides, the “κ Emax (%)” value in assay [2] (setting [4]) stood at 37.75 ± 1.70%. Further, the “μ Emax (%)” value in assay [3] (setting [5]) was 25.67 ± 0.88%. The Ki in assay [1] was determined as 183 ± 23.3 nM.

In general, Emax refers to the size of the effect at its maximum, as opposed to the concentration needed. With `C[C@H](NC(=O)c1cc2c([nH]c1=O)C[C@]13CCN(CC4CC4)[C@H](Cc4ccc(O)cc41)[C@]3(O)C2)C(N)=O` [Compound 16], the concentration for a half-maximal effect (EC50) is over 20000 nM in assay [2] and 6.44 ± 0.41 nM in assay [3]. In addition, in assay [3] (setting [5]), the Emax came out at 14.7 ± 3.28%. Besides, the affinity in assay [1], expressed as Ki, was 1.05 ± 0.22 nM.

Regarding `NC(=O)C[C@H](NC(=O)c1cc2c([nH]c1=O)C[C@]13CCN(CC4CC4)[C@H](Cc4ccc(O)cc41)[C@]3(O)C2)C(N)=O` [Compound 20, (S)-2-((6R,6aS,12aR)-15-(cyclopropylmethyl)-2,6a-dihydroxy-10-oxo-6,6a,7,10,11,12-hexahydro-5H-6,12a-(epiminoethano)naphtho[2,1-g]quinoline-9-carboxamido)succinamide], the EC50 in assay [2] and in assay [3] was over 20000 nM throughout. This molecule returned an inhibition constant (Ki) in assay [1] of 2.59 ± 0.99 nM.

In the case of `COC(=O)c1cc2c([nH]c1=O)C[C@]13CCN(CC4CC4)[C@H](Cc4ccc(OC)cc41)[C@]3(O)C2` [Compound 2, (6R,6a,S,12aR)-methyl 15-(cyclopropylmethyl)-6a-hydroxy-2-dimethoxy-10-oxo-6,6a,7,10,11,12-hexahydro-5H-6,12a-(epiminoethano)naphtho[2,1-g]quinoline-9-carboxylate], the EC50 in assay [2] is 594 ± 87 nM; in assay [3] it was over 20000 nM. For the same molecule, the Emax in assay [2] (setting [4]) was 37.5 ± 2.25%. The Ki in assay [1] stood at 37.6 ± 4.75 nM.

With `NC(=O)CNC(=O)c1cc2c([nH]c1=O)C[C@]13CCN(CC4CC4)[C@H](Cc4ccc(O)cc41)[C@]3(O)C2` [Compound 14, (6R,6aS,12aR)—N-(2-amino-2-oxoethyl)-15-(cyclopropylmethyl)-2,6a-dihydroxy-10-oxo-6,6a,7,10,11,12-hexahydro-5H-6,12a-(epiminoethano)naphtho[2,1-g]quinoline-9-carboxamide], the EC50 in assay [2] and in assay [3] was over 20000 nM each time. Besides, in assay [1], the affinity, expressed as Ki, was 1.53 ± 0.26 nM.

Consider `COc1ccc2c(c1)[C@]13CCN(CC4CC4)[C@H](C2)[C@@H]1Cc1cc(C(N)=O)c(=O)[nH]c1C3` [Compound 6, (6R,6aR,12aS)-15-(cyclopropylmethyl)-2-methoxy-10-oxo-6,6a,7,10,11,12-hexahydro-5H-6,12a-(epiminoethano)naphtho[2,1-g]quinoline-9-carboxamide], for which the values for the EC50 in assay [2] and in assay [3] were 2980 ± 587 nM and 528 ± 121 nM, respectively. Besides, the Emax in assay [2] (setting [4]) was found to be 59.3 ± 2.33%; in assay [3] (setting [5]), 19.7 ± 2.02%. Also, the inhibition constant Ki in assay [1] was found to be 35.7 ± 2.74 nM.

On to `NC(=O)[C@@H]1CCCN1C(=O)c1cc2c([nH]c1=O)C[C@]13CCN(CC4CC4)[C@H](Cc4ccc(O)cc41)[C@]3(O)C2` [Compound 19, (S)-1-((6R,6aS,12aR)-15-(cyclopropylmethyl)-2,6a-dihydroxy-10-oxo-6,6a,7,10,11,12-hexahydro-5H-6,12a-(epiminoethano)naphtho[2,1-g]quinoline-9-carbonyl)pyrrolidine-2-carboxamide], for which the EC50 in assay [2] and in assay [3] was over 20000 nM each time. This molecule had a Ki in assay [1] of 0.97 ± 0.23 nM.

For `COc1ccc2c(c1)[C@]13CCN(CC4CC4)[C@H](C2)[C@]1(O)Cc1cc(C(N)=O)c(=O)[nH]c1C3` [Compound 4, (6R,6aS,12aR)-15-(cyclopropylmethyl)-6a-hydroxy-2-methoxy-10-oxo-6,6a,7,10,11,12-hexahydro-5H-6,12a-(epiminoethano)naphtho[2,1-g]quinoline-9-carboxamide], the EC50 was 5380 ± 489 nM in assay [2] and over 20000 nM in assay [3]. Moreover, the Emax in assay [2] (setting [4]) turned out to be 39.7 ± 5.78%. Affinity in assay [1] was put at a Ki of 292 ± 17 nM.

Regarding `NC(=O)[C@H](Cc1ccccc1)NC(=O)c1cc2c([nH]c1=O)C[C@]13CCN(CC4CC4)[C@H](Cc4ccc(O)cc41)[C@]3(O)C2` [Compound 17, (6R,6aS,12aR)—N—((S)-1-amino-1-oxo-3-phenylpropan-2-yl)-15-(cyclopropylmethyl)-2,6a-dihydroxy-10-oxo-6,6a,7,10,11,12-hexahydro-5H-6,12a-(epiminoethano)naphtho[2,1-g]quinoline-9-carboxamide], the EC50 in assay [2] and in assay [3] was over 20000 nM in each case. In assay [3] (setting [5]), the Emax is -0.33 ± 0.67%. In assay [1], this molecule had a Ki of 0.85 ± 0.15 nM.
